System: Monocotyledonous and dicotyledonous test plants
Assay: Herbicidal action prior to emergence of the plants (pre-emergence action), Example B1
Assay type: in vivo
Settings: preemergence application, 250 g/ha, evaluated after 4 weeks, 100%=total damage, 0%=no damage
Experimental: Monocotyledonous and dicotyledonous test plants are sown in seed trays in standard soil. Immediately after sowing, the test compounds are applied by spraying in the form of an aqueous suspension (prepared from a wettable powder (Example F3, b) according to WO 97/34485) or in the form of an emulsion (prepared from an emulsifiable concentrate (Example F1, c) according to WO 97/34485) in a concentration of 250 g/ha. The test plants are then grown in a greenhouse under optimum conditions. After a 4-week test period, the test is evaluated (100%=total damage to plant; 0%=no damage to plant; NC not evaluated).

Compound | herbicidal damage, ABUTH [%] | herbicidal damage, AMARE [%] | herbicidal damage, BRAPL [%] | herbicidal damage, DIGSA [%] | herbicidal damage, ECHCG [%] | herbicidal damage, SETFA [%] | herbicidal damage, STEME [%] | herbicidal damage, VERPE [%]
Cc1nc2c(C(=O)C3=C(O)CCCC3=O)ccc(C(F)(F)F)n2n1 [Compound 11.3] | 70 | 40 | 50 | 30 | 0 | 10 | 40 | 40
O=C(C1=C(O)C2CCC(C2)C1=O)c1ccc(C(F)(F)F)n2ncnc12 (stereo not drawn) [2.1] | 100 | 100 | 100 | 100 | 90 | 90 | 70 | 40
O=C1CCCC(O)=C1C(=O)c1ccc(C(F)(F)F)n2c(-c3cccnc3)nnc12 [Compound 3.15] | 10 | 0 | 30 | 30 | 30 | 30 | 60 | 30
O=C(C1=C(O)C2CCC(C2)C1=O)c1ccc(C(F)(F)F)n2nc(-c3ccc(Cl)cc3)nc12 (stereo not drawn) [2.35] | 0 | 0 | 50 | 20 | 0 | 0 | 50 | 0
O=C1CCCC(O)=C1C(=O)c1ccc(C(F)(F)F)n2cnnc12 [Compound 3.1] | 100 | 100 | 40 | 100 | 10 | 0 | 70 | 60
O=C1CCCC(O)=C1C(=O)c1ccc(C(F)(F)F)n2c(Cl)nnc12 [Compound 3.2] | 100 | 100 | 0 | 80 | 70 | 0 | 100 | 100
O=C(C1=C(O)C2CCC(C2)C1=O)c1ccc(C(F)(F)F)n2c(-c3ccc(Cl)cc3)nnc12 (stereo not drawn) [Compound 1.35] | 50 | 100 | 100 | 100 | 0 | 30 | 70 | 40
O=C1CCCC(O)=C1C(=O)c1ccc(C(F)(F)F)n2c(OC(F)F)nnc12 [Compound 3.12] | 50 | 100 | 60 | 10 | 0 | 0 | 0 | 

Reference: patent US20100035756A1, “TRIAZOLOPHYRIDINE DERIVATIVES AS HERBICIDES” (SYNGENTA LIMITED, priority 2006, published 2010)
